The target of test [1] is Carbonic anhydrase 9 (Homo sapiens, UniProt Q16790).
For test [2], the target named is Carbonic anhydrase 2 (Homo sapiens, UniProt P00918).
For test [3], the target named is Carbonic anhydrase 1 (Homo sapiens, UniProt P00915).
Carbonic anhydrase 1, sequence (P00915 whole entry): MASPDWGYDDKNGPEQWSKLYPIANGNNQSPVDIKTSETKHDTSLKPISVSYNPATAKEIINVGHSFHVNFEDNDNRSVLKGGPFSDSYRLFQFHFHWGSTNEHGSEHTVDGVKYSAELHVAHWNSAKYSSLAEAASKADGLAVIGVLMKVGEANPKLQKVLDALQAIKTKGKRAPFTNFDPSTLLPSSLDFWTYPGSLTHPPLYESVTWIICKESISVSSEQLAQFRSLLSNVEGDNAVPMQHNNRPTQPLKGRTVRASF

As for `NS(=O)(=O)c1ccc(CNC(=O)NC2CC2c2ccccc2)cc1` (centres undefined), the inhibition constant (Ki) in test [1] was found to be 1840 nM; in test [2] it was 2610 nM.
`NS(=O)(=O)c1ccc(CCNC(=O)CN2C(=O)c3ccccc3C2=O)cc1` registered a Ki in test [1] of 290 nM.
For the molecule `NS(=O)(=O)c1ccc(CCNC(=O)c2sc3ccccc3c2Cl)cc1`, affinity in test [1] was put at a Ki of 1070 nM.
Consider `CC1CCN(N(CCCC(=O)Nc2ccc(S(N)(=O)=O)cc2)N2CCC(C)CC2)CC1`, for which the inhibition constant Ki in test [1] was 90 nM; in test [2], 265 nM.
Consider `NS(=O)(=O)c1ccc(CCNC(=S)Nc2ccc(C(=O)O)cc2)cc1`, for which the Ki in test [2] was 380 nM.
On the same count and under the same terms, under `NS(=O)(=O)Oc1ccc(OS(N)(=O)=O)cc1` stands 643 nM.
Regarding `N#Cc1c(N)n(-c2cccc(S(N)(=O)=O)c2)c2nc3ccccc3nc12`, the Ki in test [1] was found to be 300 nM.
Regarding `NS(=O)(=O)c1ccc(CNS(=O)(=O)c2ccc(F)cc2)cc1`, the Ki in test [1] is 290 nM; in test [2], 100 nM.
`C=CCn1c(SCC(=O)Nc2ccc(S(N)(=O)=O)cc2)nc2sc3c(c2c1=O)CCCC3`: the Ki worked out at 2750 nM in test [1], 15000 nM in test [3] and 330 nM in test [2].

The term Ki denotes a measure of affinity in units of concentration, obtained from inhibition or displacement.

The record behind these values is ChEMBL document CHEMBL1140874, “Ligand-based and structure-based virtual screening to identify carbonic anhydrase IX inhibitors” (Bioorg Med Chem, 2009).
